Data as given in US20240368092A1, “2,4-Dihydro-3H-1,2,4-Triazol-3-One P2X7 Antagonists” (Breye Therapeutics ApS, priority 2021, published 2024).

Columns and labels:
Format in all cases: cell-based
ratP2X7 = molecular target: T1, ratP2X7 (Rattus norvegicus, UniProt Q64663); test: P2X7 channel calcium-influx assay (Fluo-8, FLIPR TETRA), rat P2X7; details: HEK-293 cells stably transfected with P2X7; Bz-ATP at EC80; low divalent cation buffer; read-out: ratP2X7 (activity range)
T1 construct: expressed in transfected cells; host or cells: HEK-293
T1 sequence (Q64663 1-595): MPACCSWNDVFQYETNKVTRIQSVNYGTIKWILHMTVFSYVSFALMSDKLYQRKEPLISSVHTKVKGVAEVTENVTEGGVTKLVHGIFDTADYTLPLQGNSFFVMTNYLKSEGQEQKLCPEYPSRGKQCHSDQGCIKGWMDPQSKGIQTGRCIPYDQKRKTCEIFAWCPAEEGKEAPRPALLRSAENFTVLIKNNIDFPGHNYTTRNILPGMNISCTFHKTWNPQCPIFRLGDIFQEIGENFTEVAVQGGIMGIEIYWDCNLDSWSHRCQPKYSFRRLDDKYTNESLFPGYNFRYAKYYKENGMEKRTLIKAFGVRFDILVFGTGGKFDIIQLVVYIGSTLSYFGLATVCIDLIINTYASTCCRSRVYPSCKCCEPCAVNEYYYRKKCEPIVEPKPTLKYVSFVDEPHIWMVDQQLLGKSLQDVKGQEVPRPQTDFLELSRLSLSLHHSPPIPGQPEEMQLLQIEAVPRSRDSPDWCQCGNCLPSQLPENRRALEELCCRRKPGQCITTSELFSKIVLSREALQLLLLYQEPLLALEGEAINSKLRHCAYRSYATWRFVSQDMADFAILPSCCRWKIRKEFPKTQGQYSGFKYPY
Procedure: (§1) Extracellular binding of Bz-ATP to P2X7 receptor opens the channel and allows Ca^2+ influx into the cells. This Ca^2+ entry was measured in HEK-293 cells stably transfected with P2X7 receptor using Screen Quest™ Fluo-8 No Wash Calcium Assay Kit (AAt Bioquest®, cat. 36316). Once inside the cell, the lipophilic blocking groups of Fluo-8 are cleaved by non-specific cell esterases, resulting in a negatively-charged fluorescent dye that stays inside cells. Its fluorescence increases upon binding to calcium. When HEK-293/P2X7 cells are stimulated with Bz-ATP, Ca^2+ enters the cells and the fluorescence of Fluo-8 NW increases. The dye has an absorption spectrum compatible with excitation at 488 nm by argon laser sources and its emission wavelength is in the range of 515-575 nm.
(§2) HEK-293 cells stably transfected with P2X7 receptor were seeded overnight in growth medium at 10,000 to 20,000 cells/well in 384-well plate. 24 hours later, the medium was removed, and the cells were pre-loaded at RT for 1 hour with 20 μL/w of Fluo-8 NW. Then 10 μL/w of test compounds and reference antagonist A438079 at 3×-concentration were injected with the FLIPRTETRA and the kinetic response over a period of five minutes was monitored. A second injection of 15 μL/w of 3× reference activator (Bz-ATP at EC80) was performed with the FLIPR TETRA and the signal of the emitted fluorescence was recorded for additional three minutes. All the experiment was carried out in a Low Divalent Cation Assay Buffer (0.3 mM Ca^2+ and 0 mM Mg^2+). The effect of the test compounds was measured as percent inhibition vs the reference antagonist and IC50 values were calculated accordingly. Here are reported the potency ranges as A, B, C and D, where A is <200 nM; B is 200 nM-1 μM, C is 1-10 μM, D is 10-30 μM.

humanP2X7 = molecular target: T2, humanP2X7 (Homo sapiens, UniProt Q99572); test: P2X7 channel calcium-influx assay (Fluo-8, FLIPR TETRA), human P2X7; details: HEK-293 cells stably transfected with P2X7; Bz-ATP at EC80; low divalent cation buffer; read-out: humanP2X7 (activity range)
T2 construct: expressed in transfected cells; host or cells: HEK-293
T2 sequence (Q99572 1-595): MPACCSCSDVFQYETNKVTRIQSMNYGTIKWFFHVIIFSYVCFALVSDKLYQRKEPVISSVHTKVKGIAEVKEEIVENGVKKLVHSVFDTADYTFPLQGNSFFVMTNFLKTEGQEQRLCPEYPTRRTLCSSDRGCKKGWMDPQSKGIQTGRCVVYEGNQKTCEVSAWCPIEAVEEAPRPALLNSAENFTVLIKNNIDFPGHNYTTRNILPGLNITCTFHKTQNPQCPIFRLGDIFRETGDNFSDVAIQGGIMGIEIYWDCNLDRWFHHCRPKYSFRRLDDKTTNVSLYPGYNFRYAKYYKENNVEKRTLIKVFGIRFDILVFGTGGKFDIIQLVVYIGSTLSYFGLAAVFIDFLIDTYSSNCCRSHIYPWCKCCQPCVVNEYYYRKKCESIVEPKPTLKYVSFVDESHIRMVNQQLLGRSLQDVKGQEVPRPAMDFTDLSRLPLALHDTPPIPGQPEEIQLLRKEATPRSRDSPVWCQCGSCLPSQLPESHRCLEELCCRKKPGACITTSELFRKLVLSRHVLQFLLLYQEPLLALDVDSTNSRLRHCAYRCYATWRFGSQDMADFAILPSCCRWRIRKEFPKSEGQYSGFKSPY
Procedure: as §1, §2

human P2X7 channel = molecular target: T3, human P2X7 channel (Homo sapiens, UniProt Q99572); test: human P2X7 channel assay by automated patch-clamp (QPatch 16X); details: HEK-293 cells expressing P2X7; current evoked by 100 microM BzATP; whole-cell, held at -80 mV; read-out: human Q-Patch (activity range)
T3 construct: expressed in transfected cells; host or cells: HEK-293
T3 sequence (Q99572 1-595): T2 sequence (Q99572 1-595)
Procedure: In order to directly monitor the block of P2X7 channel, an electrophysiological assay was developed and implemented on the QPatchl6X automated electrophysiology instrument.
HEK-293 cells expressing the P2X7 channels were cultured in modified EMEM.
72 hours before experiment, 5 million cells were seeded onto T225 flasks. Just before the experiment cells were washed twice, detached from the flask with trypsin-EDTA, re-suspended in the suspension solution and placed on the QPatch 16x.
The compounds (20 mM in a 100% DMSO) stored at −20° C. were prepared the day of the experiment (a first dilution 1:20 in 100% DMSO to prepare a 1 mM stock solution, then a 1 microM solution in external solution+a serial dilution 1:10).
The standard whole-cell voltage clamp experiments were performed at room temperature. From these experiments the multihole technology was used and the data were sampled at 2 KHz.
The intracellular solution contained (mM) 135 CsF, 10 NaCl, 1 EGTA, 10 HEPES, (pH 7.2 with CsOH) whereas the extracellular contained (mM) 145 NaCl, 4 KCl, 0.5 MgCl2, 1 CaCl2, 10 HEPES, 10 Glc (pH 7.4 with NaOH).
After establishment of the seal and the passage in the whole cell configuration, the cells were held at −80 mV. The P2XR7 current was evoked by applying 100 microM of BzATP alone (4 times) and then in the presence increasing concentrations of the compound under investigation (1, 10, 100 and 1000 nM).
The pre-incubation periods 5 to 8 contain increasing concentrations of the compound of interest (1, 10, 100 and 1000 nM), as illustrated in FIGURE (application protocol).
The maximal inward current evoked by BzATP in absence or presence of increasing concentrations of the compounds under investigation was measured and normalized. The potential […] effect was measured as % of control and as IC50 determined fitting the dose-response curves data with the following equation:
Here are reported the potency ranges as A, B, C and D, where A is <10 nM; B is 10 nM-100 nM, C is 0.1-1 μM, D is 1-10 μM.

mouseP2X7 = molecular target: T4, mouseP2X7 (Mus musculus, UniProt Q9Z1M0); test: P2X7 channel calcium-influx assay (Fluo-8, FLIPR TETRA), mouse P2X7; details: HEK-293 cells stably transfected with P2X7; Bz-ATP at EC80; low divalent cation buffer; read-out: mouseP2X7 (activity range)
T4 construct: expressed in transfected cells; host or cells: HEK-293
T4 sequence (Q9Z1M0 1-595): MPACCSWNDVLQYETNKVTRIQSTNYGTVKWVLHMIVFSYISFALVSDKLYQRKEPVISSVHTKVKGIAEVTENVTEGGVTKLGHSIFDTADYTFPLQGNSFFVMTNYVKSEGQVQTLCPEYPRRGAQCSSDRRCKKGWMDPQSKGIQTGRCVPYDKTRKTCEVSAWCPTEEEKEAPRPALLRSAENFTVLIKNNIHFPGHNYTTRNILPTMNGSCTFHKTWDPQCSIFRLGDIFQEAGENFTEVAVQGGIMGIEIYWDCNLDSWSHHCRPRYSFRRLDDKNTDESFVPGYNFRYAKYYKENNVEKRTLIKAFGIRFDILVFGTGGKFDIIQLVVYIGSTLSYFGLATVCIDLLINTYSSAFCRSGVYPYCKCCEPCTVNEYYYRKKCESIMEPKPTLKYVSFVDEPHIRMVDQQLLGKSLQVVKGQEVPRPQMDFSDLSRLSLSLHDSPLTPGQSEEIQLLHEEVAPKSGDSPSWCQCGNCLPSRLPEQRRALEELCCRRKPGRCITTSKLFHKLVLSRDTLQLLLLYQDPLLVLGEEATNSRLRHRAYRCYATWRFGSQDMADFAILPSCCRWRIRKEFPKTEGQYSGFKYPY
Procedure: as §1, §2

Compound	IC50 (ratP2X7) [nM]	IC50 (humanP2X7) [nM]	IC50 (human P2X7 channel) [nM]	IC50 (mouseP2X7) [nM]
Cn1nc(CC2CCCCC2)n(Cc2ccnc(C(F)(F)F)c2)c1=O [Example 13, 5-(cyclohexylmethyl)-2-methyl-4-((2-(trifluoromethyl)pyridin-4-yl)methyl)-2,4-dihydro-3H-1,2,4-triazol-3-one]	10000 to 30000	10000 to 30000	1000 to 10000	10000 to 30000
Cn1nc(Cc2c(F)cccc2Cl)n(CCC2CCC(F)(F)CC2)c1=O [Example 15, 5-(2-chloro-6-fluorobenzyl)-4-(2-(4,4-difluorocyclohexyl)ethyl)-2-methyl-2,4-dihydro-3H-1,2,4-triazol-3-one]	< 200	< 200	10 to 100	1000 to 10000
Cn1nc(Cc2c(F)cccc2Cl)n(CCC2CCC(C)(C)CC2)c1=O [Example 16, 5-(2-chloro-6-fluorobenzyl)-4-(2-(4,4-dimethylcyclohexyl)ethyl)-2-methyl-2,4-dihydro-3H-1,2,4-triazol-3-one]	200 to 1000	200 to 1000	10 to 100	1000 to 10000
Cn1nc(Cc2ccccc2C(F)(F)F)n(CC2CCCCC2)c1=O [Example 17, 4-(cyclohexylmethyl)-2-methyl-5-(2-(trifluoromethyl)benzyl)-2,4-dihydro-3H-1,2,4-triazol-3-one]	< 200	200 to 1000	100 to 1000	1000 to 10000
Cn1nc(Cc2ccccc2C(F)(F)F)n(CC2CCC(F)(F)CC2)c1=O [Example 18, 4-((4,4-difluorocyclohexyl)methyl)-2-methyl-5-(2-(trifluoromethyl)benzyl)-2,4-dihydro-3H-1,2,4-triazol-3-one]	< 200	< 200	10 to 100	1000 to 10000
Cn1nc(Cc2ccccc2C(F)(F)F)n(CC2CCC(F)(F)C2)c1=O (stereo not drawn) [Example 19, 4-((3,3-difluorocyclopentyl)methyl)-2-methyl-5-(2-(trifluoromethyl)benzyl)-2,4-dihydro-3H-1,2,4-triazol-3-one]	200 to 1000	1000 to 10000	100 to 1000	10000 to 30000
Cn1nc(Cc2c(F)cccc2Cl)n(CC2CCCO2)c1=O (stereo not drawn) [Example 20, 5-(2-chloro-6-fluorobenzyl)-2-methyl-4-((tetrahydrofuran-2-yl)methyl)-2,4-dihydro-3H-1,2,4-triazol-3-one]	10000 to 30000	10000 to 30000	1000 to 10000	10000 to 30000
CN1CCCCC1Cn1c(Cc2c(F)cccc2Cl)nn(C)c1=O (stereo not drawn) [Example 21, 5-(2-chloro-6-fluorobenzyl)-2-methyl-4-((1-methylpiperidin-2-yl)methyl)-2,4-dihydro-3H-1,2,4-triazol-3-one]	1000 to 10000	1000 to 10000	1000 to 10000	10000 to 30000

Second part, the molecule after the results:

IC50 (ratP2X7) [nM]	IC50 (humanP2X7) [nM]	IC50 (human P2X7 channel) [nM]	IC50 (mouseP2X7) [nM]	Compound
< 200	200 to 1000	10 to 100	1000 to 10000	Cn1nc(Cc2c(F)cccc2Cl)n(CC2CC3C(C2)C3(F)F)c1=O (stereo not drawn) [Example 5, 5-(2-chloro-6-fluorobenzyl)-4-((6,6-difluorobicyclo[3.1.0]hexan-3-yl)methyl)-2-methyl-2,4-dihydro-3H-1,2,4-triazol-3-one]
< 200	< 200	10 to 100	200 to 1000	Cn1nc(Cc2ccc(F)cc2Cl)n(CC2CCCCCC2)c1=O [Example 11, 5-(2-chloro-4-fluorobenzyl)-4-(cycloheptylmethyl)-2-methyl-2,4-dihydro-3H-1,2,4-triazol-3-one]
< 200	< 200	< 10	< 200	Cn1nc(Cc2c(F)cccc2Cl)n(CC2CCCCCC2)c1=O [Example 12, 5-(2-chloro-6-fluorobenzyl)-4-(cycloheptylmethyl)-2-methyl-2,4-dihydro-3H-1,2,4-triazol-3-one]
< 200	< 200	< 10	< 200	Cn1nc(Cc2c(F)cccc2Cl)n(CC2CCC3(CC2)CC3)c1=O [Example 14, 5-(2-chloro-6-fluorobenzyl)-2-methyl-4-(spiro[2.5]octan-6-ylmethyl)-2,4-dihydro-3H-1,2,4-triazol-3-one]
